{"source": "patent US7351733B2", "about": "“Tetrahydrocarbazole derivatives and their pharmaceutical use” (SmithKline Beecham Corporation, priority 2003, dated 2008)", "note": "Structures can show the parent of a compound that is named as a salt."}
{"test_system": "episomal HPV-16 DNA in W12-20850 cells", "test": "W-12 cellular assay (episomal HPV-16 DNA, hybrid capture)", "type": "cell-based, HPV16", "conditions": "Human papillomavirus 16, 96 h; W12-20850 cells, four days incubation, episomal HPV-16 DNA quantified by hybrid capture, inhibition relative to untreated control cells; read-out: W-12", "units": {"IC50": "nM"}}
{"smiles": "Fc1ccccc1NC1CCCc2c1[nH]c1ccc(Br)cc21", "note": "(stereo not drawn) [Example 50, 6-Bromo-N-(2-fluorophenyl)-2,3,4,9-tetrahydro-1H-carbazol-1-amine]", "IC50": 70}
{"smiles": "Clc1ccc(NC2CCCc3c2[nH]c2ccc(Cl)cc32)cc1", "note": "(stereo not drawn) [Example 16, 6-Chloro-N-(4-chlorophenyl)-2,3,4,9-tetrahydro-1H-carbazol-1-amine]", "IC50": 14}
{"smiles": "c1cnc(NC2CCCc3c2[nH]c2ccccc32)nc1", "note": "(stereo not drawn) [Example 37, N-Pyrimidin-2-yl-2,3,4,9-tetrahydro-1H-carbazol-1-amine]", "IC50": 4500}
{"smiles": "Brc1ccc2[nH]c3c(c2c1)CCCC3Nc1nc2ccccc2s1", "note": "(stereo not drawn) [Example 36, N-(1,3-Benzothiazol-2-yl)-6-bromo-2,3,4,9-tetrahydro-1H-carbazol-1-amine]", "IC50": 72}
{"smiles": "Clc1ccc(NC2CCCc3c2[nH]c2ccc(Br)cc32)cc1Cl", "note": "(stereo not drawn) [Example 51, 6-Bromo-N-(3,4-dichlorophenyl)-2,3,4,9-tetrahydro-1H-carbazol-1-amine]", "IC50": 22}
{"smiles": "Fc1ccc(NC2CCCc3c2[nH]c2ccc(Br)cc32)cc1", "note": "(stereo not drawn) [Example 21, 6-Bromo-N-(4-fluorophenyl)-2,3,4,9-tetrahydro-1H-carbazol-1-amine]", "IC50": "< 10"}
{"smiles": "Fc1cccc(NC2CCCc3c2[nH]c2ccc(Br)cc32)c1", "note": "(stereo not drawn) [Example 46, 6-Bromo-N-(3-fluorophenyl)-2,3,4,9-tetrahydro-1H-carbazol-1-amine]", "IC50": "< 10"}
{"smiles": "FC(F)(F)c1ccc(NC2CCCc3c2[nH]c2ccc(Br)cc32)nc1", "note": "(stereo not drawn) [Example 34, 6-Bromo-N-[5-(trifluoromethyl)pyridin-2-yl]-2,3,4,9-tetrahydro-1H-carbazol-1-amine]", "IC50": "< 10"}
{"smiles": "Cc1ccc(NC2CCCc3c2[nH]c2ccc(Cl)cc32)cc1", "note": "(stereo not drawn) [Example 18, 6-Chloro-N-(4-methylphenyl)-2,3,4,9-tetrahydro-1H-carbazol-1-amine]", "IC50": 19}
{"smiles": "Cc1ccnc(NC2CCCc3c2[nH]c2ccc(Cl)cc32)n1", "note": "(stereo not drawn) [Example 25, 6-Chloro-N-(4-methylpyrimidin-2-yl)-2,3,4,9-tetrahydro-1H-carbazol-1-amine]", "IC50": 35}
{"smiles": "Clc1ccc2[nH]c3c(c2c1)CCCC3Nc1ncccn1", "note": "(stereo not drawn) [Example 23, 6-Chloro-N-pyrimidin-2-yl-2,3,4,9-tetrahydro-1H-carbazol-1-amine]", "IC50": 44}
{"smiles": "COc1ccc(NC2CCCc3c2[nH]c2ccc(Br)cc32)cc1", "note": "(stereo not drawn) [Example 19, 6-Bromo-N-(4-methoxyphenyl)-2,3,4,9-tetrahydro-1H-carbazol-1-amine]", "IC50": "< 10"}
{"smiles": "Brc1ccc2[nH]c3c(c2c1)CCCC3Nc1ccc2[nH]ccc2c1", "note": "(stereo not drawn) [Example 47, 6-Bromo-N-(1H-indol-5-yl)-2,3,4,9-tetrahydro-1H-carbazol-1-amine]", "IC50": 112}
{"smiles": "N#Cc1ccc(NC2CCCc3c2[nH]c2ccc(Br)cc32)nc1", "note": "(stereo not drawn) [Example 35, 6-[(6-Bromo-2,3,4,9-tetrahydro-1H-carbazol-1-yl)amino]nicotinonitrile]", "IC50": 30}
{"smiles": "Cc1ccc2[nH]c3c(c2c1)CCCC3Nc1ncccn1", "note": "(stereo not drawn) [Example 29, 6-Methyl-N-pyrimidin-2-yl-2,3,4,9-tetrahydro-1H-carbazol-1-amine]", "IC50": 252}
{"smiles": "COc1ccc(NC2CCCc3c2[nH]c2ccc(Cl)cc32)cc1", "note": "(stereo not drawn) [Example 15, 6-Chloro-N-(4-methoxyphenyl)-2,3,4,9-tetrahydro-1H-carbazol-1-amine]", "IC50": 10}
{"smiles": "Clc1ccccc1NC1CCCc2c1[nH]c1ccc(Br)cc21", "note": "(stereo not drawn) [Example 49, 6-Bromo-N-(2-chlorophenyl)-2,3,4,9-tetrahydro-1H-carbazol-1-amine]", "IC50": "< 10"}
{"smiles": "COc1cc(OC)nc(NC2CCCc3c2[nH]c2ccc(Cl)cc32)n1", "note": "(stereo not drawn) [Example 24, 6-Chloro-N-(4,6-dimethoxypyrimidin-2-yl)-2,3,4,9-tetrahydro-1H-carbazol-1-amine]", "IC50": 30}
{"smiles": "COc1ccccc1NC1CCCc2c1[nH]c1ccc(Br)cc21", "note": "(stereo not drawn) [Example 48, 6-Bromo-N-(2-methoxyphenyl)-2,3,4,9-tetrahydro-1H-carbazol-1-amine]", "IC50": 57}
{"smiles": "FC(F)(F)c1cnc(NC2CCCc3c2[nH]c2ccc(Br)cc32)nc1", "note": "(stereo not drawn) [Example 33, 6-Bromo-N-[5-(trifluoromethyl)pyrimidin-2-yl]-2,3,4,9-tetrahydro-1H-carbazol-1-amine]", "IC50": 44}
{"smiles": "Brc1ccc2[nH]c3c(c2c1)CCCCC3Nc1ncccn1", "note": "(stereo not drawn) [Example 38, 2-Bromo-N-pyrimidin-2-yl-5,6,7,8,9,10-hexahydrocyclohepta[b]indol-6-amine]", "IC50": "< 10"}
{"smiles": "COc1cccc(NC2CCCc3c2[nH]c2ccc(Br)cc32)c1", "note": "(stereo not drawn) [Example 45, 6-Bromo-N-(3-methoxyphenyl)-2,3,4,9-tetrahydro-1H-carbazol-1-amine]", "IC50": "< 10"}
{"smiles": "Fc1ccc(NC2CCCc3c2[nH]c2ccc(Cl)cc32)cc1", "note": "(stereo not drawn) [Example 17, 6-Chloro-N-(4-fluorophenyl)-2,3,4,9-tetrahydro-1H-carbazol-1-amine]", "IC50": 23}
{"smiles": "Cc1cc(C)nc(NC2CCCc3c2[nH]c2ccc(Cl)cc32)n1", "note": "(stereo not drawn) [Example 26, 6-Chloro-N-(4,6-dimethylpyrimidin-2-yl)-2,3,4,9-tetrahydro-1H-carbazol-1-amine]", "IC50": 62}
{"smiles": "Clc1ccc2[nH]c3c(c2c1)CCCC3Nc1ccccc1", "note": "(stereo not drawn) [Example 14, 6-Chloro-N-phenyl-2,3,4,9-tetrahydro-1H-carbazol-1-amine]", "IC50": "< 10"}
{"smiles": "CCCc1cnc(NC2CCCc3c2[nH]c2ccc(Br)cc32)nc1", "note": "(stereo not drawn) [Example 28, 6-Bromo-N-(5-propylpyrimidin-2-yl)-2,3,4,9-tetrahydro-1H-carbazol-1-amine]", "IC50": 15}
{"smiles": "Brc1ccc2[nH]c3c(c2c1)CCCC3Nc1ccccc1", "note": "(stereo not drawn) [Example 13, 6-Bromo-N-phenyl-2,3,4,9-tetrahydro-1H-carbazol-1-amine]", "IC50": 10}
{"smiles": "Clc1ccc(NC2CCCc3c2[nH]c2ccc(Br)cc32)cc1", "note": "(stereo not drawn) [Example 20, 6-Bromo-N-(4-chlorophenyl)-2,3,4,9-tetrahydro-1H-carbazol-1-amine]", "IC50": "< 10"}
{"test_system": "episomal HPV-16 DNA in W12-20850 cells", "test": "W-12 cellular assay (episomal HPV-16 DNA, hybrid capture)", "type": "cell-based, HPV16", "conditions": "Human papillomavirus 16, W12-20850, 96 h, read-out: W-12 (nM)", "units": {"IC50": "nM"}}
{"smiles": "Brc1ccc2[nH]c3c(c2c1)CCCC3Nc1ccccn1", "note": "(stereo not drawn) [Example 27, 6-Bromo-N-pyridin-2-yl-2,3,4,9-tetrahydro-1H-carbazol-1-amine hydrochloride]", "IC50": 37}
{"smiles": "Brc1ccc2[nH]c3c(c2c1)CCCC3Nc1ncccn1", "note": "(stereo not drawn) [Example 22, 6-Bromo-N-pyrimidin-2-yl-2,3,4,9-tetrahydro-1H-carbazol-1-amine hydrochloride]", "IC50": 97}
{"smiles": "FC(F)(F)c1ccc2[nH]c3c(c2c1)CCCC3Nc1ccccc1", "note": "(stereo not drawn) [Example 43, N-Phenyl-6-(trifluoromethyl)-2,3,4,9-tetrahydro-1H-carbazol-1-amine hydrochloride]", "IC50": 51}
{"smiles": "Cc1cc(C)nc(NC2CCCc3c2[nH]c2ccc(Br)cc32)n1", "note": "(stereo not drawn) [Example 32, 6-Bromo-N-(4,6-dimethylpyrimidin-2-yl)-2,3,4,9-tetrahydro-1H-carbazol-1-amine hydrochloride]", "IC50": 12}
{"smiles": "COc1cc(OC)nc(NC2CCCc3c2[nH]c2ccc(C)cc32)n1", "note": "(stereo not drawn) [Example 31, N-(4,6-Dimethoxypyrimidin-2-yl)-6-methyl-2,3,4,9-tetrahydro-1H-carbazol-1-amine hydrochloride]", "IC50": 70}
